Source: paper PMC10235067, “Increased renal elimination of endogenous and synthetic pyrimidine nucleosides in concentrative nucleoside transporter 1 deficient mice” (Nature Communications, 2023)
Several values for one entry are separate records, joined by “and”; a condition that tells them apart may be missing. Identical values can stand only once. Counter-ions that a name gives are not always drawn.

Legend:
[1] = Gemcitabine urine pharmacokinetics (renal excretion) in Slc28a1+/+ and Slc28a1-/- mice
Procedure: THU was added to the mouse urine samples upon collection and frozen until analysis. […] Five microliters of the diluted samples were transferred to a 96-well autosampler plate then 10 µL of internal standard mixture was added and mixed. […] The plate was then transferred to the 4 °C autosampler for analysis.
The chromatographic separation was performed on a Thermo Accucore aQ 2.6 µm, 100 ×2.1 mm column at 30 °C using a gradient with a 10 µL injection volume. The mobiles phases were 1 mM ammonium acetate in deionized water pH 6.8 and acetonitrile. The total run time was 5.5 min. […] The LC–MS/MS analysis was conducted on a Thermo Vanquish UHPLC with a TSQ Quantiva mass spectrometer equipped with an electrospray ionization source.

[2] = cited from earlier work
CNT1 = conditions: read-out: Km (affinity for CNT1); cited from earlier work
KPC cells = experiment: Tumor burden by bioluminescent imaging after orthotopic implantation of KPC-LUC cells; conditions: orthotopic KPC-LUC tumors, Gemcitabine group, Fig. 6C source data
[3] = Gemcitabine plasma pharmacokinetics in Slc28a1+/+ and Slc28a1-/- mice; conditions: Gemcitabine in plasma, KO mice, iv gemcitabine 50mg/kg, per mouse

Compound: Nc1ccn([C@@H]2O[C@H](CO)[C@@H](O)C2(F)F)c(=O)n1 [dFdC, Gemcitabine hydrochloride, reference compound]
- concentration at 10 min ([1]; mouse, urine, intravenous, 50 mg/kg, Cp (Gemcitabine), Figure 5 G, H, I, WT mice, 10 Minutes, individual mice): 628 µg/mL
- concentration at 15 min ([1]; mouse, urine, intravenous, 50 mg/kg, Cp (Gemcitabine), Figure 5 G, H, I, WT mice, 15 Minutes, individual mice): 859 µg/mL
- concentration at 30 min ([1]; mouse, urine, intravenous, 50 mg/kg, Cp (Gemcitabine), Figure 5 G, H, I, WT mice, 30 Minutes, individual mice): 725 µg/mL
- concentration at 60 min ([1]; mouse, urine, intravenous, 50 mg/kg, Cp (Gemcitabine), Figure 5 G, H, I, WT mice, 60 Minutes, individual mice): 864 µg/mL
- concentration at 120 min ([1]; mouse, urine, intravenous, 50 mg/kg, Cp (Gemcitabine), Figure 5 G, H, I, WT mice, 120 Minutes, individual mice): 403 µg/mL
- concentration at 240 min ([1]; mouse, urine, intravenous, 50 mg/kg, Cp (Gemcitabine), Figure 5 G, H, I, WT mice, 240 Minutes, individual mice): 400 µg/mL
- renal clearance (CLr) in Slc28a1-/- mice higher than in Slc28a1+/+ mice ([1]; non-compartmentally calculated, single i.v. dFdC 50 mg/kg): 126.63%
- Log P [2]: −1.5
- Km (CNT1): 12 to 36 µM
- Tumor burden (bioluminescent imaging signal), individual mice (KPC cells; day 7, Slc28a1-/- mice): -32133333333 and 23906666667 and -21903333333 and -24593333333 and -34283333333 and 89006666667
- Tumor burden (bioluminescent imaging signal), individual mice (KPC cells; day 7, wild-type mice): 59739000000 and -37121000000 and -92035000000 and 9139000000 and 52739000000 and 7539000000
- Tumor burden (bioluminescent imaging signal), individual mice (KPC cells; day 14, Slc28a1-/- mice): 144007000000 and 59806666667 and 55206666667 and 122107000000 and 12746666667 and 52806666667
- Tumor burden (bioluminescent imaging signal), individual mice (KPC cells; day 14, wild-type mice): 127000000000 and 202000000000 and 71900000000 and 123000000000 and 33800000000 and -44800000000
- Tumor burden (bioluminescent imaging signal), individual mice (KPC cells; day 21, Slc28a1-/- mice): 903000000000 and 356000000000 and 622000000000 and 1010000000000 and 2710000000000 and 506000000000
- Tumor burden (bioluminescent imaging signal), individual mice (KPC cells; day 21, wild-type mice): 998000000000 and 735000000000 and 252000000000 and 420000000000 and 526000000000 and 763000000000
- Tumor burden (bioluminescent imaging signal), individual mice (KPC cells; day 25, Slc28a1-/- mice): 1770000000000 and 1210000000000 and 722000000000 and 1860000000000 and 1930000000000 and 2060000000000
- Tumor burden (bioluminescent imaging signal), individual mice (KPC cells; day 25, wild-type mice): 1230000000000 and 109000000000 and 355000000000 and 803000000000 and 1440000000000 and 1090000000000
- AUCINF_D_obs [3]: 916.304 kg·ng·min/mL/mg and 1339.88 kg·ng·min/mL/mg and 778.001 kg·ng·min/mL/mg and 1050.65 kg·ng·min/mL/mg and 1326.68 kg·ng·min/mL/mg and 1607.46 kg·ng·min/mL/mg
- AUCINF_D_pred [3]: 916.913 kg·ng·min/mL/mg and 1340.31 kg·ng·min/mL/mg and 775.108 kg·ng·min/mL/mg and 1031 kg·ng·min/mL/mg and 1323.42 kg·ng·min/mL/mg and 1604.92 kg·ng·min/mL/mg
- AUCINF_obs [3]: 45815.2 ng·min/mL and 66994.2 ng·min/mL and 38900.1 ng·min/mL and 52532.6 ng·min/mL and 66334.2 ng·min/mL and 80373 ng·min/mL
- AUCINF_pred [3]: 45845.6 ng·min/mL and 67015.6 ng·min/mL and 38755.4 ng·min/mL and 51550 ng·min/mL and 66171.1 ng·min/mL and 80246 ng·min/mL
- AUC_%Back_Ext_obs [3]: 23.4974% and 21.9481% and 43.9469% and 42.6077% and 48.9911% and 43.8068%
- AUC_%Back_Ext_pred [3]: 23.4818% and 21.941% and 44.1109% and 43.4198% and 49.1119% and 43.8762%
- AUC_%Extrap_obs [3]: 23.7% and 27.5311% and 0.9315% and 2.802% and 0.4504% and 6.001%
- AUC_%Extrap_pred [3]: 23.7507% and 27.5543% and 0.5618% and 0.9493% and 0.2051% and 5.852%
- AUCall [3]: 36446.4 ng·min/mL and 50206 ng·min/mL and 39423.8 ng·min/mL and 51060.7 ng·min/mL and 66882.1 ng·min/mL and 76930.3 ng·min/mL
- AUClast [3]: 34957 ng·min/mL and 48549.9 ng·min/mL and 38537.7 ng·min/mL and 51060.7 ng·min/mL and 66035.4 ng·min/mL and 75549.7 ng·min/mL
- AUClast_D [3]: 699.14 kg·ng·min/mL/mg and 970.999 kg·ng·min/mL/mg and 770.754 kg·ng·min/mL/mg and 1021.21 kg·ng·min/mL/mg and 1320.71 kg·ng·min/mL/mg and 1510.99 kg·ng·min/mL/mg
- AUMCINF_obs [3]: 6487547 min*min*ng/mL and 15108021 min*min*ng/mL and 317047 min*min*ng/mL and 1417805 min*min*ng/mL and 460548 min*min*ng/mL and 2237155 min*min*ng/mL
- AUMCINF_pred [3]: 6504522 min*min*ng/mL and 15124898 min*min*ng/mL and 306594 min*min*ng/mL and 1123964 min*min*ng/mL and 449037 min*min*ng/mL and 2195280 min*min*ng/mL
- AUMC_%Extrap_obs [3]: 93.2939% and 96.2322% and 8.26% and 31.0459% and 4.579% and 71.0667%
- AUMC_%Extrap_pred [3]: 93.3114% and 96.2364% and 5.1318% and 13.0191% and 2.133% and 70.5148%
- AUMClast [3]: 435061 min*min*ng/mL and 569242 min*min*ng/mL and 290860 min*min*ng/mL and 977634 min*min*ng/mL and 439460 min*min*ng/mL and 647283 min*min*ng/mL
- C0 [3]: 2.22624 µg/mL and 3.09619 µg/mL and 4.17486 µg/mL and 5.97233 µg/mL and 9.03134 µg/mL and 9.85243 µg/mL
- Cl_obs [3]: 1091.34 mL/min/kg and 746.334 mL/min/kg and 1285.35 mL/min/kg and 951.789 mL/min/kg and 753.759 mL/min/kg and 622.099 mL/min/kg
